Data taken from ChEMBL document CHEMBL4184143 (J Med Chem, 2017).
pIC50, pKd, pKi: −log10 of the molar value.

Tests used:
[1] = molecular target: Bromodomain-containing protein 9 (Homo sapiens, UniProt Q9H8M2); experiment: Binding affinity to human partial length BRD9 (R130 to V259 residues) expressed in bacterial expression system by BROMOscan assay
[2] = Half life in SCID mouse at 25 mg/kg, po by LC/MS method; assay type: ADME, organism-based; details: in vivo
[3] = molecular target: Bromodomain-containing protein 8 (Homo sapiens, UniProt Q9H0E9); experiment: Binding affinity to human partial length BRD8 bromodomain 1 (S700 to F854 residues) expressed in mammalian expression system by BROMOscan assay
Chain of Bromodomain-containing protein 8 (Q9H0E9 whole entry, the tested form may be a part): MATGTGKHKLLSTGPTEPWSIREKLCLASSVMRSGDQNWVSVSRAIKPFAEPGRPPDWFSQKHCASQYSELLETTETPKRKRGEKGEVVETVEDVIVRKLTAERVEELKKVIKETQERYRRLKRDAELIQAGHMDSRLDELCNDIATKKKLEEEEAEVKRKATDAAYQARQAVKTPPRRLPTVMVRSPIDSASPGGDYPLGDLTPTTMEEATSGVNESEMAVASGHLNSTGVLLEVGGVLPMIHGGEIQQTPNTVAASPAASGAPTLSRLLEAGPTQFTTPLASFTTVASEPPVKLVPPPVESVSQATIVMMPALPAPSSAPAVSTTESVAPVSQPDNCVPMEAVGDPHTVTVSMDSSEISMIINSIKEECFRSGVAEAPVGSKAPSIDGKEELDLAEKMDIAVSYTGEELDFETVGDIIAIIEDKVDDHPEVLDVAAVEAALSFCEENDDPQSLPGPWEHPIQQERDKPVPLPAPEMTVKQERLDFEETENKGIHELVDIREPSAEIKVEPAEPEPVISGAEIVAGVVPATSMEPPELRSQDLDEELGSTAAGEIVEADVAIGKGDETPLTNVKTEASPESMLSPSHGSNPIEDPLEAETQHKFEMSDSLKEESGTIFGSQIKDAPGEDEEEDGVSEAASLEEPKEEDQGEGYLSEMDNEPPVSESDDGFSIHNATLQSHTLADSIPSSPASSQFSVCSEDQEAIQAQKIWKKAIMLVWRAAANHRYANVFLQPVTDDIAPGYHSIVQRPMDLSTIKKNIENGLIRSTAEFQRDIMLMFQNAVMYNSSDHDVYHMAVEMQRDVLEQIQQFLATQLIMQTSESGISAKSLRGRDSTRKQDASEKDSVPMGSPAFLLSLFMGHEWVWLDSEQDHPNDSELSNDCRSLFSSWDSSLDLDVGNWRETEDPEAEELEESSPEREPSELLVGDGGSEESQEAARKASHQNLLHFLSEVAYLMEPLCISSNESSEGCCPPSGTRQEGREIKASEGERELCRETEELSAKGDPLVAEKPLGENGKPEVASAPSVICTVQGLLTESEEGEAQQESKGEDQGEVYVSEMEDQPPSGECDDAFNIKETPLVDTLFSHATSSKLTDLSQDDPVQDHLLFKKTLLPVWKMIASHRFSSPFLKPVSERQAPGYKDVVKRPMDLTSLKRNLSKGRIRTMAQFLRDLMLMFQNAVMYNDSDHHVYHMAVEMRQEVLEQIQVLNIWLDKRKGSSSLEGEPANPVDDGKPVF

[4] = molecular target: Bromodomain-containing protein 4 (Homo sapiens, UniProt O60885); experiment: Inhibition of FAM-labeled ZBA248 binding to recombinant human N-terminal His6-tagged BRD4 bromodomain 1 (44 to 168 residues) expressed in Rosetta2 DE3 cells after 30 mins by Flourescence polarization assay; assay type: biochemical
CREB-binding protein = CREB-binding protein (Homo sapiens, UniProt Q92793); experiment: Binding affinity to human partial length CREBBP (R1081 to G1197 residues) expressed in bacterial expression system by BROMOscan assay
Chain of CREB-binding protein (Q92793 whole entry, the tested form may be a part): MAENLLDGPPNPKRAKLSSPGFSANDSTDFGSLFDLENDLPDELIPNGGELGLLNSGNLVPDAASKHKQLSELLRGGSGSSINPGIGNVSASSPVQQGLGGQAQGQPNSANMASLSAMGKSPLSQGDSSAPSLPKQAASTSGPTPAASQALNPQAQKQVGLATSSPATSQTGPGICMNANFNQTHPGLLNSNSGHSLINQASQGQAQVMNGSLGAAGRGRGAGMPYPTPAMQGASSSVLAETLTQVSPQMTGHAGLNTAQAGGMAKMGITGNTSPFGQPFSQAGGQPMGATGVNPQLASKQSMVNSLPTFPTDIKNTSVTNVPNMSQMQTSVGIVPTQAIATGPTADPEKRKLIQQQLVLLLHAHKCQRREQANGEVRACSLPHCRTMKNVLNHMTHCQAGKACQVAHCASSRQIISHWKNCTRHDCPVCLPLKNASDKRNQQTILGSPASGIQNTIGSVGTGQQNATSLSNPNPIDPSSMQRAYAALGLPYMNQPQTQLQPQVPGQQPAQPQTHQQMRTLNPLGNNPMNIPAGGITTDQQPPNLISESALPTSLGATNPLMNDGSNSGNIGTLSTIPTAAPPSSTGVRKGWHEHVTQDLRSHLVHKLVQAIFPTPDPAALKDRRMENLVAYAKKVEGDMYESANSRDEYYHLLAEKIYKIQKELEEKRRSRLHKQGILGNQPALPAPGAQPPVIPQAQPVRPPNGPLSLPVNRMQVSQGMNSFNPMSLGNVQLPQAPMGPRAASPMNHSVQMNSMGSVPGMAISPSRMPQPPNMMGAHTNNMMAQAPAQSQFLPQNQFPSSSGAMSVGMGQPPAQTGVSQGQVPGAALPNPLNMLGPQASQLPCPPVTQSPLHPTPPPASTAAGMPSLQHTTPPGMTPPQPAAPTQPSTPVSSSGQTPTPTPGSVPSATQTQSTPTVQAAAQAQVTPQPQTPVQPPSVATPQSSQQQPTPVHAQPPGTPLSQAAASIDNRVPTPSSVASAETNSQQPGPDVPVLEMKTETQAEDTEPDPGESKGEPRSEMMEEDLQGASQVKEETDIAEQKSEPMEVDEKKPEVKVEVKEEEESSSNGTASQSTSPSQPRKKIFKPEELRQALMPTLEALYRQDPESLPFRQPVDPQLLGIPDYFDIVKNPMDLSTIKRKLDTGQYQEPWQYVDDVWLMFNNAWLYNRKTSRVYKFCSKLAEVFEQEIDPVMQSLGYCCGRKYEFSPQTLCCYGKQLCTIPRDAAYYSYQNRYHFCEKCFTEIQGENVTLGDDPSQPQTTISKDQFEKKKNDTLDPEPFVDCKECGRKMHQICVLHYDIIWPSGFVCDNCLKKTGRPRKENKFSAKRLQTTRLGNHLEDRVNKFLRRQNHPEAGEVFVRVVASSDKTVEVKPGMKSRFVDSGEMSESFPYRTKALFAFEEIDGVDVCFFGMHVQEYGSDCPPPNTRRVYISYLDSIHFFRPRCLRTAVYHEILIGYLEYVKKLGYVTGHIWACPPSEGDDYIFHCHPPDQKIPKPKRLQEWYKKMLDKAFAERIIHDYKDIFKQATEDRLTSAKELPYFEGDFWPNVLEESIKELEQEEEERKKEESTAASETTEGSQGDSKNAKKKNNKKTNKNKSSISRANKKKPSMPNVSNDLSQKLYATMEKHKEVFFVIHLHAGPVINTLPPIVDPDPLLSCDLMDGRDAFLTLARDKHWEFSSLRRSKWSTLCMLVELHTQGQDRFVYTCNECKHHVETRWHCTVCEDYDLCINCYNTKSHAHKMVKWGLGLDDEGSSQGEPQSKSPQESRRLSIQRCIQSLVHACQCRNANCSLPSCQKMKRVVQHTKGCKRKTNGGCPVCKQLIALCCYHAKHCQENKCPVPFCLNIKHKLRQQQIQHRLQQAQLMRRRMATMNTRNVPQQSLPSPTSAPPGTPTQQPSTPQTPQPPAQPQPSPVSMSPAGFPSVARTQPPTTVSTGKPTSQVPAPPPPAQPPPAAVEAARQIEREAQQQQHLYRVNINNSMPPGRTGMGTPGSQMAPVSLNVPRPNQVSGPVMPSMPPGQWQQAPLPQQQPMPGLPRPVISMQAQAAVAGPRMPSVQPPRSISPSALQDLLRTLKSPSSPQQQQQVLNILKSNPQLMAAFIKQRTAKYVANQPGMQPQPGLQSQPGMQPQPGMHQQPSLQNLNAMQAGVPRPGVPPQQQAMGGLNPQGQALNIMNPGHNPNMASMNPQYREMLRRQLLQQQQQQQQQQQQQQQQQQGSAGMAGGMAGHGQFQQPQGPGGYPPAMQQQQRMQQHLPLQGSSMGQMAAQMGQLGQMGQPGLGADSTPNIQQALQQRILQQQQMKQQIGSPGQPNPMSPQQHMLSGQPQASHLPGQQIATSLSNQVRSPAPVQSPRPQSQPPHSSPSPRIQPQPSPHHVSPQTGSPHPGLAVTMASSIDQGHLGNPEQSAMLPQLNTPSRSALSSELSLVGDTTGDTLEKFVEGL

[5] = molecular target: Histone acetyltransferase KAT2A (Homo sapiens, UniProt Q92830); experiment: Binding affinity to human partial length GCN5L2 (E726 to K837 residues) expressed in bacterial expression system by BROMOscan assay
Chain of Histone acetyltransferase KAT2A (Q92830 whole entry, the tested form may be a part): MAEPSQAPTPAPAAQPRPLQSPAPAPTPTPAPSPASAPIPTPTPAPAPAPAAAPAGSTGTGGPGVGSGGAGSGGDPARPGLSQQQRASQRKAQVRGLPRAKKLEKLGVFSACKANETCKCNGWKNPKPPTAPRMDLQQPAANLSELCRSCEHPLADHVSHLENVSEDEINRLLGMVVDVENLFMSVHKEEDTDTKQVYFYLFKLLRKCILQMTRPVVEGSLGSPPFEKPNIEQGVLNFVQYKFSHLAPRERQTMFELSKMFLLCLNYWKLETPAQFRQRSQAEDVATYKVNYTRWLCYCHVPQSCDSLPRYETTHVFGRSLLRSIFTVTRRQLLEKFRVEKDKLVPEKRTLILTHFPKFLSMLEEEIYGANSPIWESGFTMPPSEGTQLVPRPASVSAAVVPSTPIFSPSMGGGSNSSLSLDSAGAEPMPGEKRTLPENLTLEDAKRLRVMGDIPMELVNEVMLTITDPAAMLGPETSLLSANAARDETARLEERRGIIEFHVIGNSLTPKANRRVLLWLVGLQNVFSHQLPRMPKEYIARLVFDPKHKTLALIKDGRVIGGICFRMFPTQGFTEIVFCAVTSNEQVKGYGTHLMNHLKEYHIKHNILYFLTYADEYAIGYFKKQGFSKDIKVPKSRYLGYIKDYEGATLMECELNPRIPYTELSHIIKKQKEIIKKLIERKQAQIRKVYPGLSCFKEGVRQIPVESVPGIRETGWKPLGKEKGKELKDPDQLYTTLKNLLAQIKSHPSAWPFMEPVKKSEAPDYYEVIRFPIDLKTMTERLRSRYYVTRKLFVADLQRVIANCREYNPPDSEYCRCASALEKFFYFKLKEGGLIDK

Mus musculus = experiment: Volume of distribution at steady state in SCID mouse at 5 mg/kg, iv by LC/MS method; assay type: ADME, organism-based; details: in vivo
[6] = molecular target: SWI/SNF-related matrix-associated actin-dependent regulator of chromatin subfamily A member 4 (Homo sapiens, UniProt P51532); experiment: Binding affinity to human partial length SMARCA4 (A1448 to S1575 residues) expressed in bacterial expression system by BROMOscan assay

Chain of Bromodomain-containing protein 9 (Q9H8M2 whole entry, the tested form may be a part): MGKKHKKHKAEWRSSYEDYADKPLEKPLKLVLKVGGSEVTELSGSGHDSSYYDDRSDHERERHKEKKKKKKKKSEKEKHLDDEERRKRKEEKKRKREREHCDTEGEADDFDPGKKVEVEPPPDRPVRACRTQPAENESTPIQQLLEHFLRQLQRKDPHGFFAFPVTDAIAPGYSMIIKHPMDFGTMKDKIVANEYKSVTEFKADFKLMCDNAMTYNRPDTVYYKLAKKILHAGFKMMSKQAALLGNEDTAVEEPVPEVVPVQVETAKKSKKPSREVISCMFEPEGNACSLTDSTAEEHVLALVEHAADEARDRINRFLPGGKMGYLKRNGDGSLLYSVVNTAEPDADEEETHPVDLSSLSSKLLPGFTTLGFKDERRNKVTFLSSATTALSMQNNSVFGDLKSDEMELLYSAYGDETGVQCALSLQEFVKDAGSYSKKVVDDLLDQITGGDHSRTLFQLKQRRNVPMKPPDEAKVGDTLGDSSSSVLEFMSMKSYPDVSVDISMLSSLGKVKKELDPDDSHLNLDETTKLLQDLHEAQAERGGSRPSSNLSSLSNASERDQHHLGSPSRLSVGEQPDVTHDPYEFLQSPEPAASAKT

## COc1cc2c(cc1-c1c(C)noc1C)[nH]c1nc(C)nc(-c3ccnc4ccccc34)c12
[1]
  pKd: < 5.40
[2]
  half-life: 1.6 h
[3]
  pKd: < 5.40
[4]
  pIC50: 7.55
  pKi: 8.09
CREB-binding protein
  pKd: 6.28
[5]
  pKd: < 5.40
Mus musculus
  Vdss: 2.75 L/kg
[6]
  pKd: < 5.40
